Data as given in ChEMBL document CHEMBL3091325, “New aminopyrimidine derivatives as inhibitors of the TAM family” (Eur J Med Chem, 2013).

Experiments:
[1] = target: Tyrosine-protein kinase receptor UFO (Homo sapiens) (UniProt P30530); experiment: Inhibition of Axl (unknown origin) at 75 uM relative to control
[2] = target: Tyrosine-protein kinase ABL1 (Homo sapiens) (UniProt P00519); experiment: Inhibition of non-phosphorylated form of Abl1 (unknown origin) at 0.5 uM relative to control
[3] = target: Tyrosine-protein kinase ABL1 (Homo sapiens) (UniProt P00519); experiment: Inhibition of phosphorylated form of Abl1 (unknown origin) at 75 uM relative to control
[4] = target: Tyrosine-protein kinase ABL1 (Homo sapiens) (UniProt P00519); experiment: Inhibition of non-phosphorylated form of Abl1 (unknown origin) at 1 uM relative to control
[5] = target: T1, Tyrosine-protein kinase Mer (Homo sapiens) (UniProt Q12866); experiment: Inhibition of Mer (unknown origin) at 75 uM relative to control
T1 sequence (whole entry): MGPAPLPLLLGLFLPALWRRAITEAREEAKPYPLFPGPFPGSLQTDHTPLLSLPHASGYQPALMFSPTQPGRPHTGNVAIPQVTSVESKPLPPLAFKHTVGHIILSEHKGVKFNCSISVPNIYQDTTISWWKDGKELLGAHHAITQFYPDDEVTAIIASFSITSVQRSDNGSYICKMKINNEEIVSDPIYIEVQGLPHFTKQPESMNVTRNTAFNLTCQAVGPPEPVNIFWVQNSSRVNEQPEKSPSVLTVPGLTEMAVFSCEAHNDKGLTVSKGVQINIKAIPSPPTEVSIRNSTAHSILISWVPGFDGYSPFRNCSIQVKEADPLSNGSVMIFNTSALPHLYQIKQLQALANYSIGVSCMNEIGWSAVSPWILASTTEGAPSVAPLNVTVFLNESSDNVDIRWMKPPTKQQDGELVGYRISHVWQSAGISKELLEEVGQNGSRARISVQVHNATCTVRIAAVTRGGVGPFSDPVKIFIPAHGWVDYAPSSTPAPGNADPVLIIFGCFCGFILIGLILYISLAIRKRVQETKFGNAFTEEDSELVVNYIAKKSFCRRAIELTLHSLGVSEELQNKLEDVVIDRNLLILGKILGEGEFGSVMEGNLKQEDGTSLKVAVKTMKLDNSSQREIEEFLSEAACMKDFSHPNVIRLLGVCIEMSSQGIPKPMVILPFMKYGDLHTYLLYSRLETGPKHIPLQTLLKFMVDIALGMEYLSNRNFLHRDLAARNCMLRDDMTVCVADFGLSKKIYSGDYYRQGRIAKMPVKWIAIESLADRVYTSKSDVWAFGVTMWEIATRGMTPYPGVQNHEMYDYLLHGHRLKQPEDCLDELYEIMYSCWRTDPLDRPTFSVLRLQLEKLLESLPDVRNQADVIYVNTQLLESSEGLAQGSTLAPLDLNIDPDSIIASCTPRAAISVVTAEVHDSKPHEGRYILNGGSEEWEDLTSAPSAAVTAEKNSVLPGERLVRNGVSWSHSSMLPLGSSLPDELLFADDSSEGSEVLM

[6] = target: Fibroblast growth factor receptor 3 (Homo sapiens) (UniProt P22607); experiment: Inhibition of FGFR3 (unknown origin) at 75 uM relative to control
Sequence of Fibroblast growth factor receptor 3 (Homo sapiens) (P22607 23-806 limits assumed): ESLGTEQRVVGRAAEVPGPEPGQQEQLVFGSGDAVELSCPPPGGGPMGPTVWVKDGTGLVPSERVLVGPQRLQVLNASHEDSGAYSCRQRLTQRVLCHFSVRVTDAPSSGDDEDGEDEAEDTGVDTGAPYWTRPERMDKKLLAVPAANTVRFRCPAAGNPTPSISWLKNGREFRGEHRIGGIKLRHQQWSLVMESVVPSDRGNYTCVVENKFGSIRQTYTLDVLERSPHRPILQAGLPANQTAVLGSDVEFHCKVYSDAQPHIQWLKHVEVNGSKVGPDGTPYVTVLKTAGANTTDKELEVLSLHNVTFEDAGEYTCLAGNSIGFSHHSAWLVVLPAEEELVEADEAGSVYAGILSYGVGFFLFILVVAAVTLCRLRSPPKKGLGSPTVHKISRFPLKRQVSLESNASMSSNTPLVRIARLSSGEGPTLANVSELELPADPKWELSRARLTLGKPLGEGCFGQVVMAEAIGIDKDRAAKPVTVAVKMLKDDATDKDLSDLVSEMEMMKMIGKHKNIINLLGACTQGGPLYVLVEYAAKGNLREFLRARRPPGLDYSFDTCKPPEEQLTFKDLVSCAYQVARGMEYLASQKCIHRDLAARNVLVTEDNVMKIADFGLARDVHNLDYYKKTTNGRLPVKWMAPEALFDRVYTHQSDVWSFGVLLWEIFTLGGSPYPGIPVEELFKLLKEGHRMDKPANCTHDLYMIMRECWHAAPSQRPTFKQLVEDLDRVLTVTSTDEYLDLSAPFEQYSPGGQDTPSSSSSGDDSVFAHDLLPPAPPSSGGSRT

[7] = target: Fibroblast growth factor receptor 3 (Homo sapiens) (UniProt P22607); experiment: Inhibition of FGFR3 (unknown origin) at 0.5 uM relative to control
[8] = target: Tyrosine-protein kinase receptor UFO (Homo sapiens) (UniProt P30530); experiment: Inhibition of Axl (unknown origin) at 0.5 uM relative to control
[9] = target: T2, Tyrosine-protein kinase receptor TYRO3 (Homo sapiens) (UniProt Q06418); experiment: Inhibition of recombinant human Tyro3 kinase domain using poly (Glu, Ala, Tyr) as substrate at 0.5 uM after 1.5 hrs by ELISA relative to control
T2 sequence (whole entry): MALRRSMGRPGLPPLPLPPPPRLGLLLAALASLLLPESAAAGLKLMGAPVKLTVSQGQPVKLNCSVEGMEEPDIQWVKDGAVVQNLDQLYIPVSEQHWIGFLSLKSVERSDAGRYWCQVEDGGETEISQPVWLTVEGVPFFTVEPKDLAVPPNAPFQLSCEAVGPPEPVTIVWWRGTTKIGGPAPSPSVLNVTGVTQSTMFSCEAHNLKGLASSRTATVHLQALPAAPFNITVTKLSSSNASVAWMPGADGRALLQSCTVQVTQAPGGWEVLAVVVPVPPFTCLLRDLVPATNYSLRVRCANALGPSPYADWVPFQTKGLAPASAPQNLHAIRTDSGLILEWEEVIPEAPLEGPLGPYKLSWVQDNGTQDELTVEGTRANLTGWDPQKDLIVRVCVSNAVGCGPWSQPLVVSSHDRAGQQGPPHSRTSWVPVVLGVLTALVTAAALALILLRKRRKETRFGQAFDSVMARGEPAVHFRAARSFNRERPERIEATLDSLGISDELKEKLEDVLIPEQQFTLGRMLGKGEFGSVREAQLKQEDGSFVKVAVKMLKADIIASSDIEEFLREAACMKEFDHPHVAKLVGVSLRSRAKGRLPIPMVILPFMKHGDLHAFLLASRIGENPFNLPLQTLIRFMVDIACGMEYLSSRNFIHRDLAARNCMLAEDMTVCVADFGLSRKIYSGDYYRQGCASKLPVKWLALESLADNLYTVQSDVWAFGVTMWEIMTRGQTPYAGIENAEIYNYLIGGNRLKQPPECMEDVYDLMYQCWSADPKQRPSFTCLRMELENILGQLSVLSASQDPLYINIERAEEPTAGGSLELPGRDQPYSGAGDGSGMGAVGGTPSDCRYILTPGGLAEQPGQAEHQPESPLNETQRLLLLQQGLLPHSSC

[10] = target: T1, Tyrosine-protein kinase Mer (Homo sapiens); experiment: Inhibition of Mer (unknown origin) at 0.5 uM relative to control
[11] = target: Tyrosine-protein kinase ABL1 (Homo sapiens) (UniProt P00519); experiment: Inhibition of phosphorylated form of Abl1 (unknown origin) at 0.5 uM relative to control
[12] = target: T2, Tyrosine-protein kinase receptor TYRO3 (Homo sapiens); experiment: Inhibition of recombinant human Tyro3 kinase domain using poly (Glu, Ala, Tyr) as substrate at 1 uM after 1.5 hrs by ELISA relative to control
[13] = target: Tyrosine-protein kinase ABL1 (Homo sapiens) (UniProt P00519); experiment: Inhibition of non-phosphorylated form of Abl1 (unknown origin) at 75 uM relative to control
[14] = target: Fibroblast growth factor receptor 3 (Homo sapiens) (UniProt P22607); experiment: Inhibition of FGFR3 (unknown origin) at 1 uM relative to control
[15] = target: Hepatocyte growth factor receptor (Homo sapiens) (UniProt P08581); experiment: Inhibition of Met (unknown origin) at 1 uM relative to control
Sequence of Hepatocyte growth factor receptor (Homo sapiens) (P08581 whole entry, the tested form may be a part): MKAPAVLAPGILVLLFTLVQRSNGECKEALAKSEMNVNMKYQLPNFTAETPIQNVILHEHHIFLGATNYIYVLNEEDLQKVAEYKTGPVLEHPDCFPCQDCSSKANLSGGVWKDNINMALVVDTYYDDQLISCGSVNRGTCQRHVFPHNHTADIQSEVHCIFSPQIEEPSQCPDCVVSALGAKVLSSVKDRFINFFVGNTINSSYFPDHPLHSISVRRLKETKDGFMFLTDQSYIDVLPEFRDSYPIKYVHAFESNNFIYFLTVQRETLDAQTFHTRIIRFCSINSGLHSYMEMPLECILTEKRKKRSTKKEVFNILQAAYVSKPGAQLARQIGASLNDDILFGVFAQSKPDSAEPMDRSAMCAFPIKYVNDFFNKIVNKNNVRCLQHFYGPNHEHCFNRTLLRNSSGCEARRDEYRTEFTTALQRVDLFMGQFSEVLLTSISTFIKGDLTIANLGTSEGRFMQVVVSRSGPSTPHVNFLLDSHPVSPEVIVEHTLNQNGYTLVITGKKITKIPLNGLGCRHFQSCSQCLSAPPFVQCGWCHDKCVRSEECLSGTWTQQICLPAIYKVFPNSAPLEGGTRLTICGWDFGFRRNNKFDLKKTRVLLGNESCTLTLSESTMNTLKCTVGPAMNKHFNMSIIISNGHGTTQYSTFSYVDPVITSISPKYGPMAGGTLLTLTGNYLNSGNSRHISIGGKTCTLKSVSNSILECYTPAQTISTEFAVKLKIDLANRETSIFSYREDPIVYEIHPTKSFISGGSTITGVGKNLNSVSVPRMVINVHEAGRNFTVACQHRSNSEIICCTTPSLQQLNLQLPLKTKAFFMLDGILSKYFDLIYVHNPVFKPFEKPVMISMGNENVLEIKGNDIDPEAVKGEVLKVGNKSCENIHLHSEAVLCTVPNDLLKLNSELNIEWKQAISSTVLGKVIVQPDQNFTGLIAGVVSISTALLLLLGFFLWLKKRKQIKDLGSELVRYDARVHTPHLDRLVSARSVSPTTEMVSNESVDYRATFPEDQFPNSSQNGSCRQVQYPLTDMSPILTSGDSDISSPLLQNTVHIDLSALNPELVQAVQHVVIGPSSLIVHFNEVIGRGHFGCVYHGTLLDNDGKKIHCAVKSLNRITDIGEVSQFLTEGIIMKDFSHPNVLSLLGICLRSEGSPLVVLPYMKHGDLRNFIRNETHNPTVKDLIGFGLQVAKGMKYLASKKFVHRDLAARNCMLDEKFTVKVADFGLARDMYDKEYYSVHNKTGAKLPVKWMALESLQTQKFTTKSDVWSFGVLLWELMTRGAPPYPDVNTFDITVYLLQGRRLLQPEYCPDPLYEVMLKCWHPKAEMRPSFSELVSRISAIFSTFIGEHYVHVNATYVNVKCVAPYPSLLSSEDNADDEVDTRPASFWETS

[16] = target: T2, Tyrosine-protein kinase receptor TYRO3 (Homo sapiens); experiment: Inhibition of recombinant human Tyro3 kinase domain using poly (Glu, Ala, Tyr) as substrate at 75 uM after 1.5 hrs by ELISA relative to control
[17] = target: Tyrosine-protein kinase ABL1 (Homo sapiens) (UniProt P00519); experiment: Inhibition of phosphorylated form of Abl1 (unknown origin) at 1 uM relative to control
[18] = target: Hepatocyte growth factor receptor (Homo sapiens) (UniProt P08581); experiment: Inhibition of Met (unknown origin) at 0.5 uM relative to control
[19] = target: T1, Tyrosine-protein kinase Mer (Homo sapiens); experiment: Inhibition of Mer (unknown origin) at 1 uM relative to control
[20] = target: Hepatocyte growth factor receptor (Homo sapiens) (UniProt P08581); experiment: Inhibition of Met (unknown origin) at 75 uM relative to control
[21] = target: Tyrosine-protein kinase receptor UFO (Homo sapiens) (UniProt P30530); experiment: Inhibition of Axl (unknown origin) at 1 uM relative to control

Sequence of Tyrosine-protein kinase receptor UFO (Homo sapiens) (P30530 whole entry, the tested form may be a part): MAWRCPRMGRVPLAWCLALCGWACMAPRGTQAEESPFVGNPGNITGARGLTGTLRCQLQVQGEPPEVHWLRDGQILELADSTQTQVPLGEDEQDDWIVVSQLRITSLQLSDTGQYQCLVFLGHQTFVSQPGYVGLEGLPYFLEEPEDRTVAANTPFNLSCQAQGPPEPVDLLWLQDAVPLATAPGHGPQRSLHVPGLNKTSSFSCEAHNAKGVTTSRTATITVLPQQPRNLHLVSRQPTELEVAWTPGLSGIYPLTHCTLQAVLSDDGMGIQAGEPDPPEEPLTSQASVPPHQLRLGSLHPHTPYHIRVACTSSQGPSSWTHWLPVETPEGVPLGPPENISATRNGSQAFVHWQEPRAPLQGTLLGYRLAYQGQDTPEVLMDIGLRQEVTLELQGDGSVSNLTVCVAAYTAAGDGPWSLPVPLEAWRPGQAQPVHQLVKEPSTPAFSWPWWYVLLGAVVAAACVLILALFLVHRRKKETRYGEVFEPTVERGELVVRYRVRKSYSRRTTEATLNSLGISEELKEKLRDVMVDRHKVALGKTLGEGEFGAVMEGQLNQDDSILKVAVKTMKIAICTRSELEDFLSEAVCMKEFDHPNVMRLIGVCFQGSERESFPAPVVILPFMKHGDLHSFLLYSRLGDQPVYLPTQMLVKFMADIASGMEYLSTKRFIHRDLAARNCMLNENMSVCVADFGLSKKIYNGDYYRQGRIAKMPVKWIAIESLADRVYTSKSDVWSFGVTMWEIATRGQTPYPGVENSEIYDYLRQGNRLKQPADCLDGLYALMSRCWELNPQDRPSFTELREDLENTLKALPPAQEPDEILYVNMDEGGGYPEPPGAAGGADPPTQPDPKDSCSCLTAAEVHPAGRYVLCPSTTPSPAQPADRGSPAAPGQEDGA
Sequence of Tyrosine-protein kinase ABL1 (Homo sapiens) (P00519 whole entry, the tested form may be a part): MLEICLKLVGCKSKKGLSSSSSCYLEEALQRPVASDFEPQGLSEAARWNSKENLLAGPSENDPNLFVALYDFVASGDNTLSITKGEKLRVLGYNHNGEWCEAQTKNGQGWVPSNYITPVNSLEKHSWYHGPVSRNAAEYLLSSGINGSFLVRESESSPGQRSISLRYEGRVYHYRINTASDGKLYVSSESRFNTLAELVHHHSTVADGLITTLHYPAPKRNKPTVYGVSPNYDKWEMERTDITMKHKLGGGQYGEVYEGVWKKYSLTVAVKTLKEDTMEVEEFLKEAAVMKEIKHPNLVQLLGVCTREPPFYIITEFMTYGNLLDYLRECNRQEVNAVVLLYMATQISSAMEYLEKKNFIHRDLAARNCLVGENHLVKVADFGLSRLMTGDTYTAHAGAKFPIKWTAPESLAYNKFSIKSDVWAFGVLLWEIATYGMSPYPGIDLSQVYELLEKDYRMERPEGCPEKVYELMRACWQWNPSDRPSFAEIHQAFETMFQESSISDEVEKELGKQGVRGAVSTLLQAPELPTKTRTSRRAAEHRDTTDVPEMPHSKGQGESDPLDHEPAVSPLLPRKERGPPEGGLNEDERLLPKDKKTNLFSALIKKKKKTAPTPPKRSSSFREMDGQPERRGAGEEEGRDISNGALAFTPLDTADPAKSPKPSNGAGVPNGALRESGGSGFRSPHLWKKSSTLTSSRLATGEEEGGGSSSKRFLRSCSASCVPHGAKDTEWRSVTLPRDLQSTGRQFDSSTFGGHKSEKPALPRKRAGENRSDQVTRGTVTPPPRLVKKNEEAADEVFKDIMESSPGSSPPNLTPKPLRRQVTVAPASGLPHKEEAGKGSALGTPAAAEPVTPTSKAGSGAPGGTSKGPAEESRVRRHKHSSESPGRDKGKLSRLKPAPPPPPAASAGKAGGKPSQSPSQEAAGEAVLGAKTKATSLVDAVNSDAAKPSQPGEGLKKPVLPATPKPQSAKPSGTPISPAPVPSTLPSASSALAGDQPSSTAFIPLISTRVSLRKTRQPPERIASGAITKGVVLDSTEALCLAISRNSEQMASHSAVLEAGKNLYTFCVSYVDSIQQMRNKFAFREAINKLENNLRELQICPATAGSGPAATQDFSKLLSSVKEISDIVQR

Row | Structure (SMILES) | inhibition [1] [%] | inhibition [2] [%] | inhibition [3] [%] | inhibition [4] [%] | inhibition [6] [%] | inhibition [7] [%] | inhibition [8] [%] | inhibition [9] [%] | inhibition [10] [%] | inhibition [11] [%] | inhibition [12] [%] | inhibition [13] [%] | inhibition [14] [%] | inhibition [15] [%] | inhibition [16] [%] | inhibition [17] [%] | inhibition [18] [%] | inhibition [19] [%] | inhibition [20] [%] | inhibition [21] [%] | further results
1 | Nc1cc(Oc2ccc(NC(=O)c3cccn(-c4ccc(F)cc4)c3=O)cc2)ncn1 | 100 | 14 | 26 | 31 | 3 | 0 | 85 | 41 | 73 | 0 | 75 | 94 | 0 | 98 | 81 | 0 | 95 | 82 | 97 | 95 | inhibition [5]: 100%
2 | CCOc1ccn(-c2ccc(F)cc2)c(=O)c1C(=O)Nc1ccc(Oc2ccnc(N)c2Cl)c(F)c1 | 99 |  |  | 98 | 0 | 0 | 99 | 96 | 98 |  | 99 | 100 | 0 | 95 | 92 | 35 |  | 98 |  | 99 | inhibition [5]: 95%
3 | O=C(Nc1ccc(Oc2ncnc3[nH]cnc23)c(F)c1)c1cccn(-c2ccc(F)cc2)c1=O | 98 | 17 | 20 | 32 | 16 | 0 | 98 | 73 | 77 | 0 | 94 | 66 | 0 | 98 | 100 | 0 | 93 | 93 | 95 | 100 | 
4 | O=C(Nc1ccc(Oc2cc(NCCN3CCOCC3)ncn2)c(F)c1)c1cccn(-c2ccc(F)cc2)c1=O | 100 | 12 | 13 | 12 | 0 | 0 | 95 | 50 | 90 | 1 | 63 | 71 | 0 | 99 | 75 | 0 | 98 | 93 | 99 | 99 | inhibition [5]: 49%

Second part, led by results:

Row | inhibition [1] [%] | inhibition [2] [%] | inhibition [3] [%] | inhibition [4] [%] | inhibition [6] [%] | inhibition [7] [%] | inhibition [8] [%] | inhibition [9] [%] | inhibition [10] [%] | inhibition [11] [%] | inhibition [12] [%] | inhibition [13] [%] | inhibition [14] [%] | inhibition [15] [%] | inhibition [16] [%] | inhibition [17] [%] | inhibition [18] [%] | inhibition [19] [%] | inhibition [20] [%] | inhibition [21] [%] | Structure (SMILES) | further results
5 | 100 | 23 | 39 | 41 | 16 | 0 | 97 | 77 | 89 | 0 | 94 | 94 | 0 | 98 | 100 | 0 | 98 | 93 | 98 | 100 | Nc1cc(Oc2ccc(NC(=O)c3cccn(-c4ccc(F)cc4)c3=O)cc2F)ncn1 | inhibition [5]: 83%
6 | 100 | 10 | 47 | 27 | 6 | 0 | 93 | 48 | 53 | 0 | 65 | 98 | 0 | 100 | 100 | 0 | 99 | 65 | 99 | 98 | Cc1cc(F)ccc1-n1cccc(C(=O)Nc2ccc(Oc3cc(N)ncn3)c(F)c2)c1=O | inhibition [5]: 99%
7 | 100 | 25 | 21 | 37 | 9 | 0 | 74 | 27 | 50 | 8 | 63 | 85 | 0 | 97 | 100 | 4 | 91 | 71 | 99 | 93 | Nc1cc(Oc2ccc(NC(=O)c3cccn(-c4ccc(F)cc4F)c3=O)cc2F)ncn1 | inhibition [5]: 87%
8 | 100 | 27 | 30 | 50 | 12 | 0 | 96 | 61 | 94 | 0 | 75 | 32 | 0 | 100 |  | 0 | 99 | 95 | 99 | 100 | Nc1nccc(Oc2ccc(NC(=O)c3cccn(-c4ccc(F)cc4)c3=O)cc2F)n1 | 
